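Cultured in 96-well plates, cells were exposed to test compound for 48 hours across five concentrations. GI50 = concentration required for 50% inhibition of growth.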 Active and inactive are the calls of the source. Rule as the data show it: active = GI50 up to about 1.1 µM and inactive = higher.
Key:
Experiment in all cases: DTP human tumour cell line panel, 48 h
MDA-N = system: MDA-N
UACC-257 = system: UACC-257
SNB-75 = system: SNB-75
SN12C = system: SN12C
A549 = system: A549
Hs-578T = system: Hs-578T
786-0 = system: 786-0
OVCAR-3 = system: OVCAR-3
NCI-H522 = system: NCI-H522
MDA-MB-231 = system: MDA-MB-231
TK-10 = system: TK-10
ACHN = system: ACHN
SK-MEL-5 = system: SK-MEL-5
SK-MEL-28 = system: SK-MEL-28
A498 = system: A498
NCI-H460 = system: NCI-H460
PC-3 = system: PC-3
K562 = system: K562
NCI-H23 = system: NCI-H23

Cn1c2ccc([N+](=O)[O-])cc2c(=O)c2c(O)cc(O)cc21
GI50 (MDA-N): > 100 µM (inactive)
GI50 (UACC-257): > 100 µM (inactive)
GI50 (SNB-75): 4.15 µM (inactive)
GI50 (SN12C): 31.4 µM (inactive)
GI50 (A549): 29.4 µM (inactive)
GI50 (Hs-578T): 27.5 µM (inactive)
GI50 (786-0): 19 µM (inactive)
GI50 (OVCAR-3): 52.4 µM (inactive)
GI50 (NCI-H522): 7.74 µM (inactive)
GI50 (MDA-MB-231): 57.3 µM (inactive)
GI50 (TK-10): 66.2 µM (inactive)
GI50 (ACHN): 33.1 µM (inactive)
GI50 (SK-MEL-5): 60 µM (inactive)
GI50 (SK-MEL-28): > 100 µM (inactive)
GI50 (A498): > 100 µM (inactive)
GI50 (NCI-H460): 24.9 µM (inactive)
GI50 (PC-3): > 100 µM (inactive)
GI50 (K562): > 100 µM (inactive)

CCOc1ccc(/N=N/C2C(=O)N(C(=O)CC(=O)Nc3ccc(Cl)cc3)N=C2C)cc1 (stereo not given)
GI50 (MDA-N): > 100 µM (inactive)
GI50 (SNB-75): 18.4 µM (inactive)
GI50 (SN12C): > 100 µM (inactive)
GI50 (A549): > 100 µM (inactive)
GI50 (Hs-578T): > 100 µM (inactive)
GI50 (786-0): > 100 µM (inactive)
GI50 (OVCAR-3): > 100 µM (inactive)
GI50 (NCI-H522): > 100 µM (inactive)
GI50 (MDA-MB-231): > 100 µM (inactive)
GI50 (TK-10): > 100 µM (inactive)
GI50 (ACHN): > 100 µM (inactive)
GI50 (SK-MEL-5): > 100 µM (inactive)
GI50 (SK-MEL-28): > 100 µM (inactive)
GI50 (A498): > 100 µM (inactive)
GI50 (NCI-H460): > 100 µM (inactive)
GI50 (NCI-H23): > 100 µM (inactive)
GI50 (PC-3): > 100 µM (inactive)

Cc1cn(CC2(CO)CCC2)c(=O)[nH]c1=O
GI50 (MDA-N): > 100 µM (inactive)
GI50 (UACC-257): > 100 µM (inactive)
GI50 (SNB-75): > 100 µM (inactive)
GI50 (SN12C): > 100 µM (inactive)
GI50 (A549): > 100 µM (inactive)
GI50 (Hs-578T): > 100 µM (inactive)
GI50 (786-0): > 100 µM (inactive)
GI50 (OVCAR-3): > 100 µM (inactive)
GI50 (NCI-H522): > 100 µM (inactive)
GI50 (MDA-MB-231): > 100 µM (inactive)
GI50 (TK-10): > 100 µM (inactive)
GI50 (ACHN): > 100 µM (inactive)
GI50 (SK-MEL-5): > 100 µM (inactive)
GI50 (SK-MEL-28): > 100 µM (inactive)
GI50 (A498): > 100 µM (inactive)
GI50 (NCI-H460): > 100 µM (inactive)
GI50 (NCI-H23): > 100 µM (inactive)
GI50 (PC-3): > 100 µM (inactive)
GI50 (K562): > 100 µM (inactive)

CCN1CN(c2ccccc2)C2(CCN(CC(CC3OCCO3)c3ccc(F)cc3)CC2)C1=O (stereo not given)
GI50 (MDA-N): 8.49 µM (inactive)
GI50 (UACC-257): 2.79 µM (inactive)
GI50 (SNB-75): 35.2 µM (inactive)
GI50 (SN12C): 14.3 µM (inactive)
GI50 (A549): 5.24 µM (inactive)
GI50 (Hs-578T): 29.9 µM (inactive)
GI50 (786-0): 8.36 µM (inactive)
GI50 (OVCAR-3): 18.8 µM (inactive)
GI50 (NCI-H522): 12.6 µM (inactive)
GI50 (MDA-MB-231): 16.1 µM (inactive)
GI50 (TK-10): 7.53 µM (inactive)
GI50 (ACHN): 3.73 µM (inactive)
GI50 (SK-MEL-5): 4.07 µM (inactive)
GI50 (SK-MEL-28): 19.9 µM (inactive)
GI50 (A498): 3.63 µM (inactive)
GI50 (NCI-H460): 14.7 µM (inactive)
GI50 (NCI-H23): 12.5 µM (inactive)
GI50 (PC-3): 22.6 µM (inactive)
GI50 (K562): 32 µM (inactive)

O=C1OC2c3ccccc3C(=O)C2(c2ccccc2)N1c1ccccc1 (stereo not given)
GI50 (MDA-N): > 200 µM (inactive)
GI50 (UACC-257): > 200 µM (inactive)
GI50 (SNB-75): 45.4 µM (inactive)
GI50 (SN12C): > 200 µM (inactive)
GI50 (A549): > 200 µM (inactive)
GI50 (Hs-578T): > 200 µM (inactive)
GI50 (786-0): > 200 µM (inactive)
GI50 (OVCAR-3): > 200 µM (inactive)
GI50 (NCI-H522): > 200 µM (inactive)
GI50 (MDA-MB-231): > 200 µM (inactive)
GI50 (TK-10): > 200 µM (inactive)
GI50 (ACHN): > 200 µM (inactive)
GI50 (SK-MEL-5): > 200 µM (inactive)
GI50 (SK-MEL-28): > 200 µM (inactive)
GI50 (A498): > 200 µM (inactive)
GI50 (NCI-H460): > 200 µM (inactive)
GI50 (NCI-H23): > 200 µM (inactive)
GI50 (PC-3): 183 µM (inactive)
GI50 (K562): 139 µM (inactive)

O[C@@]1(c2cccs2)c2cccc(Cl)c2[C@](O)(c2cccs2)c2cccc(Cl)c21
GI50 (MDA-N): 16.8 µM (inactive)
GI50 (UACC-257): 15.2 µM (inactive)
GI50 (SNB-75): > 100 µM (inactive)
GI50 (SN12C): 17.9 µM (inactive)
GI50 (A549): 14.9 µM (inactive)
GI50 (Hs-578T): 12.8 µM (inactive)
GI50 (786-0): 16.4 µM (inactive)
GI50 (OVCAR-3): 16.3 µM (inactive)
GI50 (NCI-H522): 18.2 µM (inactive)
GI50 (MDA-MB-231): 17.3 µM (inactive)
GI50 (TK-10): 28.1 µM (inactive)
GI50 (ACHN): 17 µM (inactive)
GI50 (SK-MEL-5): 17.3 µM (inactive)
GI50 (SK-MEL-28): 17.3 µM (inactive)
GI50 (A498): 12.6 µM (inactive)
GI50 (NCI-H460): 16.9 µM (inactive)
GI50 (NCI-H23): 18.1 µM (inactive)
GI50 (PC-3): 19.1 µM (inactive)
GI50 (K562): 25.5 µM (inactive)

CC(=O)OC1(C)CC(C)C(=O)C(C(O)CC2CC(=O)NC(=O)C2)C1 (stereo not given)
GI50 (MDA-N): 0.0166 µM (active)
GI50 (UACC-257): 0.0262 µM (active)
GI50 (SNB-75): 0.504 µM (active)
GI50 (SN12C): 0.00822 µM (active)
GI50 (A549): 0.00729 µM (active)
GI50 (Hs-578T): 0.0223 µM (active)
GI50 (786-0): 0.0204 µM (active)
GI50 (OVCAR-3): 0.0236 µM (active)
GI50 (NCI-H522): 0.00357 µM (active)
GI50 (MDA-MB-231): 0.0137 µM (active)
GI50 (TK-10): 0.0859 µM (active)
GI50 (ACHN): 0.00743 µM (active)
GI50 (SK-MEL-5): 0.00787 µM (active)
GI50 (SK-MEL-28): 0.00776 µM (active)
GI50 (A498): 0.0201 µM (active)
GI50 (NCI-H460): 0.0121 µM (active)
GI50 (NCI-H23): 0.00807 µM (active)
GI50 (PC-3): 0.0199 µM (active)
GI50 (K562): 0.0178 µM (active)
